In patent US4490376A, “Substituted ethenyl derivatives of 1H-pyrazolo-[1,5-a]pyrimidine having gastroenteric activity, compositions thereof, and methods of using the same” (Farmitalia Carlo Erba S.p.A, priority 1982, dated 1984):

Assays:
[1] = approximate acute toxicity (LD50), single administration; conditions: in vivo, po; mouse; per os; single administration of increasing doses; measured on the seventh day
Procedure: In view of their high therapeutic index, the compounds of the invention can be used safely in medicine. For example, the approximate acute toxicity (LD50) of the compound 1-phenyl-5-trans-[2-(3-pyridyl)-ethenyl]-1H,7H-pyrazolo [1,5-a]pyrimidine-7-one (FCE 21542) in the mouse, determined by single administration of increasing doses and measured on the seventh day after the day of treatment, is higher than 400 mg/kg per os. Analogous toxicity data have been found for other compounds of the invention. The compounds of the invention can be administered in a variety of dosage forms, e.g. orally, in the form of tablets, capsules, sugar or film coated tablets, liquid solutions or suspensions, rectally, in the form of suppositories, parenterally, e.g. intramuscularly, or by intravenous injection or infusion. The dosage depends on the age, weight, conditions of the patient and administration route; for example the dosage adopted for oral administration to adult humans may range from about 50 to about 200 mg pro dose, from 1 to 5 times daily. The invention includes also pharmaceutical compositions comprising a compound of the invention in association with a pharmaceutically acceptable excipient (which can be a carrier or diluent).

restraint ulcers = test: inhibition of restraint ulcers in rats (Bonfils et al.), anti-ulcerogenic activity; format: in vivo, Sprague-Dawley male rats; conditions: po; rat; p.o. one hour before immobilization; lesions counted 4 hours after immobilization; approximate ED50; read-out: Antiulcerogenic activity ED50 p.o.
Source text: (§1) The compounds of the present invention are active on the gastroenteric system, in particular they are endowed with anti-ulcerogenic and gastric anti-secretory activity and are therefore useful in therapy, for example in the prevention and treatment of peptic, e.g. duodenal, gastric and exophageal, ulcers and to inhibit gastric acid secretion. The compounds of the invention are also useful for reducing the undesirable gastrointestinal sideeffects resulting from systemic administration of antiinflammatory prostaglandin synthetase inhibitors and may be, therefore, used for this purpose in association with them. […] Six Sprague-Dawley male rats (100-120 g) fasted 24 hours were used for the experiment: a square flexible small-mesh were netting was used for the immobilization and 4 hours after the immobilization the rats were sacrificed, their stomachs were removed and the lesions counted under a dissecting microscope. […] Gastric antisecretory activity was evaluated in rats by the pylorus ligature technique. […] Four hours after the ligature the rats were sacrificed, the stomach secretion was collected and centrifuged at 3500 r.p.m. for 10 minutes, and the volume, less sediment, was determined.

gastric secretion = test: inhibition of gastric secretion, pylorus ligature technique (Shay et al.), gastric antisecretory activity; format: in vivo, Sprague-Dawley male rats; conditions: rat; intraduodenal at the time of pylorus ligature; 4 hours; approximate ED50; read-out: Gastric anti-secretory activity ED50 i.d.
Source text: as §1
The amount of the free hydrochloric acid in the gastric juice was determined by titration against 0.01N sodium hydroxide to pH 7.0 on the pH-meter.

O=c1cc(/C=C/c2cccnc2)nc2ccn(-c3ccccc3)n12 [FCE 21542, 1-phenyl-5-trans-[2-(3-pyridyl)-ethenyl]-1H,7H-pyrazolo[1,5-a]pyrimidine-7-one]
LD50 at 168 h [1]: > 400 mg/kg
ED50 (restraint ulcers): ~7 mg/kg
ED50 (gastric secretion): ~3.2 mg/kg
